Experimental data: patent US20090264375A1, “INTRAOCULAR IRRIGATING SOLUTIONS AND METHODS FOR TREATING CORNEAL EDEMA” (ALCON RESEARCH, LTD., priority 2007, published 2009)

Experiment: GSSG content after autoclaving at F0=8
Format: physicochemical
Conditions: 0.4% histidine in reconstituted BSS PLUS, autoclaved
Description: The composition of reconstituted BSS PLUS® Sterile Intraocular Irrigating Solution is shown below in Table 1. The reconstituted product was used as a control solution. A sample of the reconstituted product was then spiked with 0.4% histidine to form the experimental solution. The control solution and the experimental solution were then each divided into two replicates each. The pH of one control and one experimental replicate was then adjusted to pH 6.8 and the pH of the other replicate was adjusted to pH 7.4. Both sets of the solutions were then autoclaved at F0=8. After autoclaving, GSSG contents in all the solutions were determined and the results are tabulated in Table 2 as percent GSSG remaining of the label claim in BSS PLUS® Sterile Intraocular Irrigating Solution.
All of the above solutions were autoclaved in the same cycle. However, in this particular experiment, the sterilizer used was not capable of finely regulating F0 and thus significant degradation of GSSG occurred.

Compound: N[C@@H](Cc1c[nH]cn1)C(=O)O [histidine]
- Effect on GSSG stability in solution: stabilizes GSSG in solution
